This series in a line: Human HepG2 cell viability assay in 384 well format. In kind it is toxicity, cell-based. Also on record: dose 125 nL, time 70.5 hour; cytotoxicity at 70.5 h: concentration not given beside the values. The note with it: HepG2 cells, read-out: Inhibition.
As for `CCC1=NN2C(=N)/C(=C\c3cccn3-c3cccc(Cl)c3)C(=O)N=C2S1`, the cytotoxicity at 70.5 h is -0.175%.
With `O=c1cc(Cn2ccnc2)nc2n1CCCN(Cc1ccncc1)C2`, the cytotoxicity at 70.5 h was -21.3%.
As for `CN1CCN(CCOc2ccc(NC(=O)c3ccncc3)cc2)CC1`, the figure is -3.29%; as for `O=C(N1CCCCC1)N1CCN(CC(O)c2ccc(F)cc2)CC1` (stereo not given), -7.9%; as for `Cc1ncsc1C(=O)NCc1cc2n(n1)CCN(C(=O)N(C)C)C2`, -11.4%.
Consider `CC(C)CC1SCC(=O)Nc2c1cnn2C1CCCC1` (stereo not given), for which the cytotoxicity at 70.5 h is -18.7%.
Consider `CC(C)c1nn(C)c(N(C)C)c1CNCc1ccc2c(c1)OCCO2`, for which the cytotoxicity at 70.5 h was -5.83%.
For the molecule `COc1ccc(OCCN(C)c2cc(C)nc(N)n2)cc1`, the cytotoxicity at 70.5 h was -6.24%.
`Cc1[nH]ccc1C(=O)N1CCC2(CC1)c1nc[nH]c1CCN2CC(C)C`: the cytotoxicity at 70.5 h is -8.19%.
As for `O=C(C1CCOCC1)N1CCO[C@H]2[C@@H](OCC3CC3)CC[C@@H]21`, the cytotoxicity at 70.5 h is -6.56%.
The same measure for `CCOC1CC2(CCN(C(=O)COC)CC2)c2cc(F)ccc21` (stereo not given): 1.7%; for `Cc1cc(-c2nc(-c3c(C)ncc4c3CCNC4)no2)nc(C)n1`: 26.9%.
Regarding `Fc1cnc(N2CCCn3c(nnc3Cn3ccnc3)C2)nc1`, the cytotoxicity at 70.5 h was -4.74%.
Regarding `Cc1nc(CN2CCCN(C(=O)c3cccnc3O)CC2)cs1`, the cytotoxicity at 70.5 h was -4.77%.
In the case of `CCn1nc(C)cc1C(=O)N1C[C@@H]2C[C@@H](c3nnc(C)[nH]3)O[C@@H]2C1`, the cytotoxicity at 70.5 h is -12.7%.
As to `Cn1ncc2cnn(CC(O)COCc3ccccc3Cl)c2c1=O` (stereo not given), the cytotoxicity at 70.5 h was -5.81%.
The same measure for `c1cnc2c(c1)nc1n2[C@@H](CNCc2nccs2)COC1`: -8.24%; for `O=C1CCCCN1CSc1nnnn1-c1ccc(Cl)cc1`: -4.94%; for `COc1ccccc1[C@@H]1CN(Cc2ccc3nsnc3c2)C[C@H]1C(=O)O`: -5.24%.
Consider `O=C(N1CCCC1)N1CCC2(CC1)CN(c1cccnc1)C(=O)CO2`, for which the cytotoxicity at 70.5 h was -6.88%.
On to `Cc1occc1C(=O)N1CCc2ncnc(-c3cnn(C)c3)c2CC1`, for which the cytotoxicity at 70.5 h was -8.07%.
On to `O=C1CN(C(=O)c2ccc(F)cc2)CC(O)CN1Cc1cccs1` (stereo not given), for which the cytotoxicity at 70.5 h turned out to be 1.6%.
As to `CN1N=C(C(=O)N2CCCC(CCc3cccc(F)c3)C2)CCC1=O` (stereo not given), the cytotoxicity at 70.5 h was -3.78%.
On to `CCc1ncnc2c1CCN(CCOC)CC2`, for which the cytotoxicity at 70.5 h is -9.59%.
In the case of `N#Cc1ccc(NCCS(=O)(=O)N2CCc3ccccc32)nc1`, the cytotoxicity at 70.5 h was found to be 13%.
Take `O=C(C1CCOCC1)N1CC[C@@H](O)[C@@H]1Cc1ccccc1`: the cytotoxicity at 70.5 h stood at 1.56%.
Take `CC(NCc1ccc(OCC(N)=O)cc1)c1ccc(Cl)c(Cl)c1` (stereo not given): the cytotoxicity at 70.5 h is -8.72%.
On to `CC(C)c1noc(C(C)N2CCN(Cc3ccco3)CC2)n1` (stereo not given), for which the cytotoxicity at 70.5 h was -9.38%.
Turning to `CCCC(=O)N1CCC(C(=O)NCCNc2ncccn2)CC1`, the cytotoxicity at 70.5 h is 0.692%.
For the molecule `Cn1cc(C(C)(O)CNc2ccc(Cl)c(C#N)n2)cn1` (stereo not given), the cytotoxicity at 70.5 h is 5.37%.
The same measure for `Cc1ccc(N2N=C(C(=O)N(C)Cc3ccco3)NCC2=O)cc1`: 4.87%; for `CC(C)CC(CO)NC(=O)NCc1csc(N(C)C)n1` (stereo not given): 0.865%; for `Cc1nc(C)c(CC(=O)NCc2ccccc2F)s1`: -11.1%.
Turning to `Cc1cc2ccncc2n1CC1(O)CCN(C(=O)c2ccccn2)CC1`, the cytotoxicity at 70.5 h is -1.41%.
With `c1cc(C2CCN(C3CCCCC3)C2)n[nH]1` (stereo not given), the cytotoxicity at 70.5 h is 2%.
Take `O=C1CCCN1Cc1ncn2c1CN(C(=O)NC1CCCC1)CCC2`: the cytotoxicity at 70.5 h was determined as 5.73%.
On to `CC(NC(=O)NCCCc1n[nH]c(N)c1C#N)c1ccccc1F` (stereo not given), for which the cytotoxicity at 70.5 h came to 0.683%.
Turning to `CN1C(=O)C2(CCN(CC3CC3)CC2)c2ccccc21`, the cytotoxicity at 70.5 h was -2.61%.
With `CN(C)C(=O)Cc1ccccc1NCc1nc(Cc2ccccc2)no1`, the cytotoxicity at 70.5 h was -0.0229%.
Regarding `O=C(NS(=O)(=O)c1ccccc1)c1ccccc1F`, the cytotoxicity at 70.5 h is -4.29%.
On to `COCCNC(=O)[C@@H]1CN(c2cc(OC)ncn2)C[C@H]2OCC[C@H]21`, for which the cytotoxicity at 70.5 h was -7.76%.
The same measure for `O=C(Cc1cnn(-c2ccccc2)n1)NC(C1CC1)C1CC1`: 0.511%; for `Cc1cc(N2CCCC(OC(=O)CCN3CCCC3=O)C2)nc(C)n1` (stereo not given): -5.43%; for `Cc1cccc(OC2CCN(c3nc(N)nc4[nH]cnc34)CC2)c1`: -1.39%.
The same measure for `O=C(c1ccncc1F)N1CCc2ncnc(-c3ccncc3)c2CC1`: 6.15%; for `O=C(Nc1ccccc1)N1CCn2c(nnc2C2CCCN2)C1` (stereo not given): -9.71%.
Regarding `COc1ccc(-c2cc3nn(CC(N)=O)c(=O)n3c(C)n2)cc1`, the cytotoxicity at 70.5 h is -7.26%.
As to `Cc1ccnc(C2CCN(c3ccnc(C)n3)C2)n1` (stereo not given), the cytotoxicity at 70.5 h is -12.3%.
For the molecule `CCC(CC)c1nnc(NC(=O)NC(C)Cn2cccn2)s1` (stereo not given), the cytotoxicity at 70.5 h was determined as 12.3%.
`Cc1ccccc1OCCC(=O)N(C)Cc1c(C)noc1C`: the cytotoxicity at 70.5 h is -11.1%.
Consider `CCOc1ccccc1-n1c(C2CC2)n[nH]c1=O`, for which the cytotoxicity at 70.5 h is -16.7%.
`CCc1[nH]ncc1C(=O)N1CCCC(n2nc(C)nc2C)C1` (stereo not given): the cytotoxicity at 70.5 h was 19.7%.
As for `O=C(c1ccc2c(c1)OCO2)N1CCN(c2cnccn2)CC1`, the figure is -3.98%; as for `CCc1cc(N[C@@H](CC(C)C)C(N)=O)n2nc(C)c(C)c2n1`, -8.65%; as for `CCC(CO)N(C/C(C)=C/c1ccco1)Cc1ccccn1` (stereo not given), -6%.
For the molecule `Cc1ncsc1CNC(=O)N(Cc1ccccc1)CC(C)(C)O`, the cytotoxicity at 70.5 h was -3.17%.
Take `O=S(=O)(C1CC1)N1CCC2(CCN(Cc3nccs3)CC2)CC1`: the cytotoxicity at 70.5 h is -2.17%.
Consider `CN(Cc1nccn1C)S(=O)(=O)N1CCCC1c1ccco1` (stereo not given), for which the cytotoxicity at 70.5 h is -11.4%.
For the molecule `CCOCC(O)CN1CCN(C(=O)c2cc(C)ccc2F)CC1` (stereo not given), the cytotoxicity at 70.5 h is -3.47%.
Consider `Cc1nn(C)c2c(NCc3ccccc3F)nc(C3CC3)nc12`, for which the cytotoxicity at 70.5 h was -5.5%.
The same measure for `CC(C)c1cc(C(=O)N2CCN(c3ncc4c(n3)CCOC4)CC2)on1`: 14.5%.
Turning to `Clc1ccccc1C1(c2ccnc(-c3ccncc3)n2)CCNCC1`, the cytotoxicity at 70.5 h was -5.92%.
`CCN1CC(C(=O)NC(C)(C)C)CC1=O` (stereo not given): the cytotoxicity at 70.5 h was -6.02%.
Regarding `CCOCC1CN(C(=O)c2ccoc2)Cc2cnn(C)c21` (stereo not given), the cytotoxicity at 70.5 h stood at 13.6%.
On to `O=C(NC1CC1)c1cnc2n1CCCC2`, for which the cytotoxicity at 70.5 h turned out to be 6.87%.
For `Cc1c[nH]c(CN2CCCn3nc(CNS(C)(=O)=O)cc3C2)n1`, the cytotoxicity at 70.5 h came to 16%.
On to `COc1cc(OC)c(CNC(=O)NCc2ccc(C#N)cc2)c(OC)c1`, for which the cytotoxicity at 70.5 h worked out at 3.35%.
For the molecule `CS(=O)(=O)N1CCC2(CN(C(=O)c3cccnc3)C2)C1`, the cytotoxicity at 70.5 h is -2.66%.
As for `NC(=O)COc1ccc(CNCc2ccc(F)cc2F)cc1`, the figure is -5.1%.
For the molecule `O=C(CCNc1ncc2c(n1)CCN2c1ccccc1)N1CCCC1`, the cytotoxicity at 70.5 h was -9.59%.
In the case of `CC(C)(C)c1noc(-c2nc3c([nH]2)CCCNC3=O)n1`, the cytotoxicity at 70.5 h is -4.9%.
With `COc1ccccc1CNC(=O)CN(C)C(C)c1nccs1` (stereo not given), the cytotoxicity at 70.5 h was -1.57%.
Consider `CN(CCOc1cccc(S(C)(=O)=O)c1)CC(F)F`, for which the cytotoxicity at 70.5 h was -10.4%.
For `Cn1ccnc1CNC1CCCOc2c1ccc1ccccc21` (stereo not given), the cytotoxicity at 70.5 h was -6.96%.
`C1CCc2nnc(CNc3nc(C4CC4)nc4c3CCNCC4)n2CC1`: the cytotoxicity at 70.5 h is -5.38%.
Regarding `Cn1cc(CN2CCCC(Cn3cc(CCCO)nn3)C2)cn1` (stereo not given), the cytotoxicity at 70.5 h is -7.9%.
Consider `O=C(O)c1nnn(-c2ccc(F)c(F)c2)c1-c1ccncc1`, for which the cytotoxicity at 70.5 h is -8.76%.
`Cc1nnc2n1CCN(Cc1c(Cl)ccc3cccnc13)C2`: the cytotoxicity at 70.5 h worked out at 26.2%.
Regarding `CN(C)c1ccc(-c2cccc(-c3ccn(CCCO)n3)c2)nn1`, the cytotoxicity at 70.5 h was -3.34%.
`Cc1nc(C2CCCN(C(=O)COCc3ccccc3)C2)no1` (stereo not given): the cytotoxicity at 70.5 h was -12.6%.
As for `Cc1nn(C)c2ncc(S(=O)(=O)N3CCCC(C)CC3)cc12` (stereo not given), the figure is -8.46%.
As for `O=S(=O)(c1cnccc1N1CCN(CCO)CC1)N1CCCCC1`, the figure is 27.8%; as for `CCOCCN1CCN(CC(O)c2cc(Cl)ccc2Cl)CC1` (stereo not given), -5.82%.
With `Cc1ccc(C(=O)N2C[C@H]3CNC[C@H]3C2)cn1`, the cytotoxicity at 70.5 h was found to be 25.5%.
The same measure for `COc1ccccc1CN(Cc1cccnc1)Cc1c[nH]c(C)n1`: 8.36%; for `COc1ccc(F)cc1-c1nc2c([nH]1)c(C1CC1)nn2C`: -4.46%.
Consider `CCC(CC)C(O)CNC(=O)Cc1c[nH]c2ncccc12` (stereo not given), for which the cytotoxicity at 70.5 h was -4.44%.
The same measure for `CCCn1cnnc1CNC1CSCCSC1`: -9.24%; for `Cc1ccsc1C(=O)N1CCCN(Cc2cscn2)CC1`: -2.76%.
The same measure for `Cn1cnc2c1CCN(CCS(=O)(=O)c1ccccc1)C2`: -17%; for `CN(Cc1cccc(CCN)c1)Cc1cccc2ncccc12`: -16.2%; for `Cc1noc(C2CCCN2C(=O)C2CCC2)n1` (stereo not given): -11.5%.
Regarding `Cc1ccc(F)c(S(=O)(=O)NCc2cccc(C(=O)N3CCCC3)c2)c1`, the cytotoxicity at 70.5 h stood at 16.3%.
With `Cc1cc(C)c(CNC(=O)CC2CCCO2)c(=O)[nH]1` (stereo not given), the cytotoxicity at 70.5 h is -3.05%.
As for `CCN1CCN(C2CCN(C(C(N)=O)c3ccccc3)CC2)C1=O` (stereo not given), the figure is 1.23%.
For `COc1ccc(CNC(=O)c2ccc(=O)n(C)c2)cc1C`, the cytotoxicity at 70.5 h was -9.61%.
As for `CCC(C(=O)NCC1CCN(c2cnn(C)c(=O)c2)CC1)n1cccn1` (stereo not given), the cytotoxicity at 70.5 h was -7.23%.
Take `Cc1cc(CN(C)C(=O)Nc2ccccc2C)no1`: the cytotoxicity at 70.5 h is -4.53%.
For `CO[C@H]1CN(C(=O)c2ccc(-c3ccccc3)[nH]2)CC[C@H]1N`, the cytotoxicity at 70.5 h was -10.1%.
Consider `Cc1cc(C)c2c(OCC(=O)N(C)CC(=O)NC(C)C)nn(C)c2n1`, for which the cytotoxicity at 70.5 h was -19.9%.

The record behind these values is ChEMBL document CHEMBL3507680, “University of Dundee, Gates Library screen for HepG2 cell viability”.
